# Source: patent US12384797B2, “Thioeno[3,2-b] pyridin-7-amine compounds for treating familial dysautonomia” (PTC THERAPEUTICS, INC., priority 2019, dated 2025)
# Tested on: Elongator complex protein 1 (ELP1, also referred to as IKBKAP)
# Assay: IKBKAP-HTRF assay (IKBKAP protein in lysates of FD patient-derived fibroblasts)
# Assay type: cell-based, human
# Conditions: 48 hours incubation, 7-point concentration curve
# In short: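 FD patient-derived fibroblasts (10,000/well) were treated 48 h at 37 °C with a 7-point, 3.16-fold compound series in triplicate, then lysed. IKBKAP was read by sandwich HTRF (donor/acceptor anti-IKAP antibodies, overnight at 4 °C, 665/620 nm). MFI is ΔF over vehicle ΔF; EC2x is the concentration giving twice the vehicle IKBKAP level.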
SMILES,EC2x for IKBKAP protein expression (concentration producing two times the amount of IKBKAP protein vs DMSO vehicle control),MFI (maximum fold increase in IKBKAP protein abundance relative to the vehicle control)
"Cc1cc(NCc2nccs2)c2sc(C[C@H](C)N)c(Cl)c2n1 [Compound 60, 2-[(2S)-2-aminopropyl]-3-chloro-5-methyl-N-[(1,3-thiazol-2-yl)methyl]thieno[3,2-b]pyridin-7-amine]",**** (between >0.005 μM and ≤0.02 μM is indicated by four stars (****)),***** (>4.9 is indicated by five stars (*****))
"CC[C@H](N)Cc1sc2c(NCc3cccs3)cc(Cl)nc2c1C [Compound 33, 2-[(2S)-2-aminobutyl]-5-chloro-3-methyl-N-[(thiophen-2-yl)methyl]thieno[3,2-b]pyridin-7-amine]",***** (≤0.005 μM is indicated by five stars (*****)),***** (>4.9 is indicated by five stars (*****))
"N[C@@H](CCF)Cc1sc2c(NCc3nccs3)cc(Cl)nc2c1Br [Compound 88, 2-[(2S)-2-amino-4-fluorobutyl]-3-bromo-5-chloro-N-[(1,3-thiazol-2-yl)methyl]thieno[3,2-b]pyridin-7-amine]",***** (≤0.005 μM is indicated by five stars (*****)),***** (>4.9 is indicated by five stars (*****))
"N[C@H](Cc1sc2c(NCc3ccco3)cc(Cl)nc2c1Cl)C(=O)Nc1ccccc1 [Compound 122, 3-(3,5-dichloro-7-{[(furan-2-yl)methyl]amino}thieno[3,2-b]pyridin-2-yl)-N-phenyl-D-alaninamide]",**** (between >0.005 μM and ≤0.02 μM is indicated by four stars (****)),***** (>4.9 is indicated by five stars (*****))
"COc1cccc(NC(=O)[C@H](N)Cc2sc3c(NCc4ccco4)cc(Cl)nc3c2C)c1 [Compound 144, 3-(5-chloro-7-{[(furan-2-yl)methyl]amino}-3-methylthieno[3,2-b]pyridin-2-yl)-N-(3-methoxyphenyl)-D-alaninamide]",**** (between >0.005 μM and ≤0.02 μM is indicated by four stars (****)),***** (>4.9 is indicated by five stars (*****))
"C[C@H](N)Cc1sc2c(NCc3ccco3)cc(Cl)nc2c1Cl [Compound 36, 2-[(2S)-2-aminopropyl]-3,5-dichloro-N-[(furan-2-yl)methyl]thieno[3,2-b]pyridin-7-amine]",***** (≤0.005 μM is indicated by five stars (*****)),***** (>4.9 is indicated by five stars (*****))
"OCc1cc2nc(Cl)cc(NCc3ccco3)c2s1 [Compound 5, (5-chloro-7-{[(furan-2-yl)methyl]amino}thieno[3,2-b]pyridin-2-yl)methanol]",* (An EC2x>1 μM is indicated by one star (*)),* (An MFI≤1.9 is indicated by one star (*))
"Cc1ccc(NC(=O)[C@H](N)Cc2sc3c(NCc4ccco4)cc(Cl)nc3c2C)cc1 [Compound 142, 3-(5-chloro-7-{[(furan-2-yl)methyl]amino}-3-methylthieno[3,2-b]pyridin-2-yl)-N-(4-methylphenyl)-D-alaninamide]",**** (between >0.005 μM and ≤0.02 μM is indicated by four stars (****)),***** (>4.9 is indicated by five stars (*****))
"C[C@H](N)C(F)c1sc2c(NCc3cccs3)cc(Cl)nc2c1Br (stereo partly drawn) [Compound 158, 2-[(2S)-2-amino-1-fluoropropyl]-3-bromo-5-chloro-N-[(thiophen-2-yl)methyl]thieno[3,2-b]pyridin-7-amine]",***** (≤0.005 μM is indicated by five stars (*****)),***** (>4.9 is indicated by five stars (*****))
"N[C@@H](CCO)Cc1sc2c(NCc3nccs3)cc(Cl)nc2c1Cl [Compound 48, (3S)-3-amino-4-(3,5-dichloro-7-{[(1,3-thiazol-2-yl)methyl]amino}thieno[3,2-b]pyridin-2-yl)butan-1-ol]",***** (≤0.005 μM is indicated by five stars (*****)),***** (>4.9 is indicated by five stars (*****))
"CS(=O)(=O)C[C@H](N)Cc1sc2c(NCc3ccco3)cc(Cl)nc2c1Cl [Compound 113, 2-[(2R)-2-amino-3-(methanesulfonyl)propyl]-3,5-dichloro-N-[(furan-2-yl)methyl]thieno[3,2-b]pyridin-7-amine]",**** (between >0.005 μM and ≤0.02 μM is indicated by four stars (****)),***** (>4.9 is indicated by five stars (*****))
"C#C[C@H](N)Cc1sc2c(NCc3ccco3)cc(Cl)nc2c1Cl [Compound 166, 2-[(2R)-2-aminobut-3-yn-1-yl]-3,5-dichloro-N-[(furan-2-yl)methyl]thieno[3,2-b]pyridin-7-amine]",***** (≤0.005 μM is indicated by five stars (*****)),**** (between >3.9 and ≤4.9 is indicated by four stars (****))
"N[C@@H](CF)Cc1sc2c(NCc3cccs3)cc(Cl)nc2c1Br [Compound 76, 2-[(2R)-2-amino-3-fluoropropyl]-3-bromo-5-chloro-N-[(thiophen-2-yl)methyl]thieno[3,2-b]pyridin-7-amine]",***** (≤0.005 μM is indicated by five stars (*****)),***** (>4.9 is indicated by five stars (*****))
"Cc1c([C@@H](C)N)sc2c(NCc3cccs3)cc(Cl)nc12 [Compound 56, 2-[(1R)-1-aminoethyl]-5-chloro-3-methyl-N-[(thiophen-2-yl)methyl]thieno[3,2-b]pyridin-7-amine]",* (An EC2x>1 μM is indicated by one star (*)),* (An MFI≤1.9 is indicated by one star (*))
"N[C@@H](CF)Cc1sc2c(NCc3ccco3)cc(Cl)nc2c1Br [Compound 46, 2-[(2R)-2-amino-3-fluoropropyl]-3-bromo-5-chloro-N-[(furan-2-yl)methyl]thieno[3,2-b]pyridin-7-amine]",***** (≤0.005 μM is indicated by five stars (*****)),***** (>4.9 is indicated by five stars (*****))
"Cc1c(C[C@H](C)N)sc2c(NCc3ccccc3F)cc(Cl)nc12 [Compound 29, 2-[(2S)-2-aminopropyl]-5-chloro-N-[(2-fluorophenyl)methyl]-3-methylthieno[3,2-b]pyridin-7-amine]",***** (≤0.005 μM is indicated by five stars (*****)),***** (>4.9 is indicated by five stars (*****))
